Active and inactive are the calls of the source. The calls are words filed in the database; no cut-off is given here.
Key:
Caspase-4 (Homo sapiens) = Caspase-4 (Homo sapiens) (UniProt P49662); test: Inhibition of caspase-4 (unknown origin) at 10 uM
Caspase-7 (Homo sapiens) = Caspase-7 (Homo sapiens) (UniProt P55210); test: Inhibition of caspase-7 (unknown origin) at 10 uM
[1] = Half life in mouse microsomes; assay type: ADME, Microsome
[2] = Half life in mouse plasma; assay type: ADME, cell-free
[3] = molecular target: T1, Calpain1/2 (Homo sapiens) (UniProt P17655+P07384); test: Inhibition of calpain (unknown origin) at 10 uM relative to control; assay type: protein assay
T1 sequence (P07384 whole entry, looked up): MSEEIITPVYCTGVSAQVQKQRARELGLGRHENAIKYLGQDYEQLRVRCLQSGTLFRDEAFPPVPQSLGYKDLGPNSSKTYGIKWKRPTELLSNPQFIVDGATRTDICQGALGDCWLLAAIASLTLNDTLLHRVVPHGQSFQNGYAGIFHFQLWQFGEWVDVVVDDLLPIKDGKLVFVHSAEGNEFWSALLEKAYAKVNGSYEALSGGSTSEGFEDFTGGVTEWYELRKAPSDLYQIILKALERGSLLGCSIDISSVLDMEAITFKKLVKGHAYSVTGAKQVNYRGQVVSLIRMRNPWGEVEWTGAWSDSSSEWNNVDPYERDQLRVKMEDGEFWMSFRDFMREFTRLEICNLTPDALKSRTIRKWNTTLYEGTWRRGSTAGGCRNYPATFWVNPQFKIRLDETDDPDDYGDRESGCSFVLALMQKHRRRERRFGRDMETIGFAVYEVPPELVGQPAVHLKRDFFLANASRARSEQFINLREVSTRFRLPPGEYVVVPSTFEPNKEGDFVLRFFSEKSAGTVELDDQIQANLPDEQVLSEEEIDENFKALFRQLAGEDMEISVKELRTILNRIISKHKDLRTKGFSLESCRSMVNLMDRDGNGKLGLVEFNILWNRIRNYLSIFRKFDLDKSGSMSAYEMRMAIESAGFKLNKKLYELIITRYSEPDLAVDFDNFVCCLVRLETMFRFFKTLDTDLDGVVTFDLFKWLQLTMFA
T1 sequence (P17655 whole entry, looked up): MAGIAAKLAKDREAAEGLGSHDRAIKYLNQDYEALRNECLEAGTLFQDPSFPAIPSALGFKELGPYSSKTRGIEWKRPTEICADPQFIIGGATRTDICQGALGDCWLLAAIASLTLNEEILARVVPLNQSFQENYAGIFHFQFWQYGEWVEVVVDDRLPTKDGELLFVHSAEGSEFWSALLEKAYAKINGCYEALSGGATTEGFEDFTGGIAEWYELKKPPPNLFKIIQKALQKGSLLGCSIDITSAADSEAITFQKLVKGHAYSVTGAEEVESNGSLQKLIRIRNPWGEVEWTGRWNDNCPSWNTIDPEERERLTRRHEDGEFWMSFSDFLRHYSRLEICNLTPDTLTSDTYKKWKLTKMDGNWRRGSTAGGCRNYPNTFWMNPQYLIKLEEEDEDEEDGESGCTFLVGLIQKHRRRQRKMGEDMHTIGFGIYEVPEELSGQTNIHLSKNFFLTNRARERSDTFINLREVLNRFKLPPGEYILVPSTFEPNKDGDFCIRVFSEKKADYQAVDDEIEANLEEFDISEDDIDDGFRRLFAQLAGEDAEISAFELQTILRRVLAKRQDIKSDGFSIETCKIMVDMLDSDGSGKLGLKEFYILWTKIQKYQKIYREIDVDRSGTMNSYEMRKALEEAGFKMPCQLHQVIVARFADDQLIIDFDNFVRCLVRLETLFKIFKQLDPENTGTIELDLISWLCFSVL

[4] = molecular target: T2, Cathepsin K (Homo sapiens) (UniProt P43235); test: Inhibition of cathepsin K (unknown origin) at 1 uM relative to control
T2 sequence (whole entry): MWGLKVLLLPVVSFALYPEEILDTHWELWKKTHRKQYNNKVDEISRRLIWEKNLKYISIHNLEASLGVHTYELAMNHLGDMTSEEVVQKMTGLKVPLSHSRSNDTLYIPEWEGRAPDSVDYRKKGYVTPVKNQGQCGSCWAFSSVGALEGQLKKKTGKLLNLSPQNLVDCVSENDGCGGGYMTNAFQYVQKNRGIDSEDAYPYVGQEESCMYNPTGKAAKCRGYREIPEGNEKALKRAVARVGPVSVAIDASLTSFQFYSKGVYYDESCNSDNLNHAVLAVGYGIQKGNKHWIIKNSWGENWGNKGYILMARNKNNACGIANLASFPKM

[5] = molecular target: Kallikrein-2 (Homo sapiens) (UniProt P20151); test: Inhibition of KLK2 (unknown origin) at 10 uM
Kallikrein-2 (Homo sapiens), sequence (P20151 whole entry): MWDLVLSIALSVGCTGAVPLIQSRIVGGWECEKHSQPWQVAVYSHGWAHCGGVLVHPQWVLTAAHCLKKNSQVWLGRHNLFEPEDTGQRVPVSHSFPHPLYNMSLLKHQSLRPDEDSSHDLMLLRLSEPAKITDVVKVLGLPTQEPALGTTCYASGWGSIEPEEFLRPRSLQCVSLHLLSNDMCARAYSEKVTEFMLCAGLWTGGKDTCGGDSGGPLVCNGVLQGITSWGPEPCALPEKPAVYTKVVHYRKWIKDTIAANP

[6] = molecular target: Kallikrein-1 (Homo sapiens) (UniProt P06870); test: Inhibition of KLK1 (unknown origin) at 10 uM
Kallikrein-1 (Homo sapiens), sequence (P06870 25-262 limits assumed): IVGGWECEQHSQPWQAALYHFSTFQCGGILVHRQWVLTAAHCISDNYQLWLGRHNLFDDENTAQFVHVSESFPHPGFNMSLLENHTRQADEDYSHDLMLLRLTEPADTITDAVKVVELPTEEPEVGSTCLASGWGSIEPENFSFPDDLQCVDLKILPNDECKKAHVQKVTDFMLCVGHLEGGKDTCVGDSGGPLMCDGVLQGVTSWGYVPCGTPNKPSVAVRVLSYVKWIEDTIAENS

[7] = molecular target: Cathepsin S (Homo sapiens) (UniProt P25774); test: Inhibition of cathepsin S (unknown origin) at 10 uM relative to control
Cathepsin S (Homo sapiens), sequence (P25774 115-331 limits assumed): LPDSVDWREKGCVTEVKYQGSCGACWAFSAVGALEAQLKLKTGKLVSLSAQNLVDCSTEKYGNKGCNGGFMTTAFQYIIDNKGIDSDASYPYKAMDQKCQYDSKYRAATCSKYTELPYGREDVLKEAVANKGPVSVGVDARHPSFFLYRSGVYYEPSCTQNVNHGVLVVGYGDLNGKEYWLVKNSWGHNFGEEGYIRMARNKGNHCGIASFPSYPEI

[8] = molecular target: T3, Cathepsin L2 (Homo sapiens) (UniProt O60911); test: Inhibition of cathepsin V (unknown origin) at 10 uM relative to control
T3 sequence (whole entry): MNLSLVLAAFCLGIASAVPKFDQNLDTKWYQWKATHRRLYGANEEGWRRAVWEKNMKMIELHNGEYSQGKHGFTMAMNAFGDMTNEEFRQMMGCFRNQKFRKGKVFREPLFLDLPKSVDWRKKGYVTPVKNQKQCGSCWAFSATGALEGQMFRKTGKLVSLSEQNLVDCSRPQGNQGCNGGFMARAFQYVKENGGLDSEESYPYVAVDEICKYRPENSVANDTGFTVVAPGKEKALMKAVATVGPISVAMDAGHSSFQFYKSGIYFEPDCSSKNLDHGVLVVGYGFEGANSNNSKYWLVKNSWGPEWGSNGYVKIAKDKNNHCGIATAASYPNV

[9] = molecular target: Cathepsin G (Homo sapiens) (UniProt P08311); test: Inhibition of cathepsin G (unknown origin) at 10 uM
Cathepsin G (Homo sapiens), sequence (P08311 whole entry): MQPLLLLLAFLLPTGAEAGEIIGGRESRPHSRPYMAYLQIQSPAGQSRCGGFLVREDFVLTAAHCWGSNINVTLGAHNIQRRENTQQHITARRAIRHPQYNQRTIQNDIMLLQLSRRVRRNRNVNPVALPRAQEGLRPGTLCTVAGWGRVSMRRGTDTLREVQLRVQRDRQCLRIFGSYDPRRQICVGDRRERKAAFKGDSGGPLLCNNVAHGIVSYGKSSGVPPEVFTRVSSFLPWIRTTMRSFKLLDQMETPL

[10] = molecular target: Prothrombin (Homo sapiens) (UniProt P00734); test: Inhibition of thrombin (unknown origin) at 100 nM relative to control
Legumain (Homo sapiens) = Legumain (Homo sapiens) (UniProt Q99538); test: Inhibition of legumain (unknown origin) at 10 uM
Legumain (Homo sapiens), sequence (Q99538 whole entry): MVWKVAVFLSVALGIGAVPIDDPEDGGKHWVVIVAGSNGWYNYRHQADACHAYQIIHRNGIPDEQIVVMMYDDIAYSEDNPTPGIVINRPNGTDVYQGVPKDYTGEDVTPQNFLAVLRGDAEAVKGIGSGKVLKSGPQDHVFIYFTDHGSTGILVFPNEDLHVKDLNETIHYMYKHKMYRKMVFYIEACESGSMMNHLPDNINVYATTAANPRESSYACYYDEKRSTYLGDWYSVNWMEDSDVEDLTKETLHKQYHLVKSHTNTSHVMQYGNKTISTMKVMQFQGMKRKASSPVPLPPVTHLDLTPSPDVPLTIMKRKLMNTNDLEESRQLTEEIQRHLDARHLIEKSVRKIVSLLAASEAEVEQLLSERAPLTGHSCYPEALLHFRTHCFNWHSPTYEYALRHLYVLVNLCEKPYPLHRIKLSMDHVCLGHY

OCI-Ly3 = test: Antitumor activity against human OCI-LY3 cells xenografted in ip dosed NOD Cg-rkdc SCID Il2rgtm1Wjl/SzJ mouse assessed as effect on tumor growth administered twice daily for 16 to 24 days measured 4 hrs post-last dose; assay type: functional, organism-based
Caspase-9 (Homo sapiens) = Caspase-9 (Homo sapiens) (UniProt P55211); test: Inhibition of caspase-9 (unknown origin) at 10 uM
Caspase-9 (Homo sapiens), sequence (P55211 1-315 limits assumed): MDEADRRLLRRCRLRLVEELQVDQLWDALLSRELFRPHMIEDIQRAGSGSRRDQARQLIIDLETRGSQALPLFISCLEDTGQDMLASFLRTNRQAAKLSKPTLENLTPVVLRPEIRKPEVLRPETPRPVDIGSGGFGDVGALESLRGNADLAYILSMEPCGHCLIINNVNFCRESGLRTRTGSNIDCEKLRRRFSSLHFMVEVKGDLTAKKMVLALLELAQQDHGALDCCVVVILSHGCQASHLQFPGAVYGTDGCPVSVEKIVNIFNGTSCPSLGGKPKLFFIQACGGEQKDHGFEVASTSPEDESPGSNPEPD
Caspase-9 (Homo sapiens), sequence (P55211 331-416 limits assumed): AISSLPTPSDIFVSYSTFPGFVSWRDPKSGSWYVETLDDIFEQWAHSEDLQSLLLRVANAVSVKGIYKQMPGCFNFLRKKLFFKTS

[11] = Drug uptake in iv dosed mouse plasma by LC-MS/MS analysis; assay type: ADME, organism-based; settings: in vivo
[12] = molecular target: Prothrombin (Homo sapiens) (UniProt P00734); test: Inhibition of thrombin (unknown origin) at 1 uM relative to control
[13] = molecular target: T4, Mucosa-associated lymphoid tissue lymphoma translocation protein 1 (Homo sapiens) (UniProt Q9UDY8); test: Inhibition of MALT1 (unknown origin) expressed in PMA/IO-stimulated human Raji Glosensor cells by reporter gene assay; assay type: cell-based
T4 sequence (whole entry): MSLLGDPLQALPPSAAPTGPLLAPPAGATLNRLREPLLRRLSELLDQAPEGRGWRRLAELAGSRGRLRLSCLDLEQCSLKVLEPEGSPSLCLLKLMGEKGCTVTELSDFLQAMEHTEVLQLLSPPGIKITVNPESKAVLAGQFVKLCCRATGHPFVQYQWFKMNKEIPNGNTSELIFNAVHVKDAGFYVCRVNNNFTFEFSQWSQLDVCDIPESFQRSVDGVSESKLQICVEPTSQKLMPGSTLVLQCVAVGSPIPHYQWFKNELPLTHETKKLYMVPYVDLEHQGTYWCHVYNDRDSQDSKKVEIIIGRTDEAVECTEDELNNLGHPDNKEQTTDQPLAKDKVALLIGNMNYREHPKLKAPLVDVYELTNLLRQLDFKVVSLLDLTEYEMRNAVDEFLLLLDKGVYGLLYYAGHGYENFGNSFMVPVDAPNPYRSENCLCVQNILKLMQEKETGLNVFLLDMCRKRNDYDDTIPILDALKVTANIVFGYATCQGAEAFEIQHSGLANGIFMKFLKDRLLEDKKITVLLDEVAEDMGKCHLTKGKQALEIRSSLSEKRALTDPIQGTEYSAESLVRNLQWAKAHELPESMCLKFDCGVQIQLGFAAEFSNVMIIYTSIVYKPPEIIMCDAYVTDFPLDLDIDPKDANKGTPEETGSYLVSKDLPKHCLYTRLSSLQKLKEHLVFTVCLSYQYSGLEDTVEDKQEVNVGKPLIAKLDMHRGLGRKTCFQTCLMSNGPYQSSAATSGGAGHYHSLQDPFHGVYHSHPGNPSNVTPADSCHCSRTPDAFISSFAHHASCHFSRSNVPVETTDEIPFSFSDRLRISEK

[14] = molecular target: T1, Calpain1/2 (Homo sapiens); test: Inhibition of calpain (unknown origin) at 1 uM relative to control; assay type: protein assay
Caspase-6 (Homo sapiens) = Caspase-6 (Homo sapiens) (UniProt P55212); test: Inhibition of caspase-6 (unknown origin) at 10 uM
Caspase-6 (Homo sapiens), sequence (P55212 24-179 limits assumed): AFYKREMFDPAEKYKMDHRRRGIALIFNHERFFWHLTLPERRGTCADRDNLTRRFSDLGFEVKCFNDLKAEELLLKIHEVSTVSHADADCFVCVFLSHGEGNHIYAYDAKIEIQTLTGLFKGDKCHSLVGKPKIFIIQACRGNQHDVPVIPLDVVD
Caspase-6 (Homo sapiens), sequence (P55212 194-293 limits assumed): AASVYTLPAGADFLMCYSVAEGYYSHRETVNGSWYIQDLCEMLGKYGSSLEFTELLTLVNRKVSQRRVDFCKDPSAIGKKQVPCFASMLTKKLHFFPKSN

[15] = molecular target: Procathepsin L (Homo sapiens) (UniProt P07711); test: Inhibition of cathepsin L (unknown origin) at 10 uM relative to control
Procathepsin L (Homo sapiens), sequence (P07711 114-333 limits assumed): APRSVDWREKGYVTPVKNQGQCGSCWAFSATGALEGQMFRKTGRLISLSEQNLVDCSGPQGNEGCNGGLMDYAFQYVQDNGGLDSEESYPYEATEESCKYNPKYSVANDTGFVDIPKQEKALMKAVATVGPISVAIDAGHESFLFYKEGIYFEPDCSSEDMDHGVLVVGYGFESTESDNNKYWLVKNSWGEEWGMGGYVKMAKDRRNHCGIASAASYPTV

[16] = molecular target: Tryptase beta-2 (Homo sapiens) (UniProt P20231); test: Inhibition of tryptase b2 (unknown origin) at 100 nM relative to control
Tryptase beta-2 (Homo sapiens), sequence (P20231 whole entry): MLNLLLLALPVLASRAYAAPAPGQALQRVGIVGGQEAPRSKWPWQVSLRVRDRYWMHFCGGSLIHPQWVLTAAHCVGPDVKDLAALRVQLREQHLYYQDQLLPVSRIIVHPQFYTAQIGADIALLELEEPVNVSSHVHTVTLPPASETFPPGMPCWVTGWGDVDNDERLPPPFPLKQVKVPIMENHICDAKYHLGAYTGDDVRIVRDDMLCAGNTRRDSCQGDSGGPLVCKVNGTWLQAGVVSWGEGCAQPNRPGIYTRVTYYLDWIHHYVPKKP

[17] = molecular target: T1, Calpain1/2 (Homo sapiens); test: Inhibition of calpain (unknown origin) at 100 nM relative to control; assay type: protein assay
OCI-Ly1 = test: Antitumor activity against human OCI-LY1 cells xenografted in ip dosed NOD.CB17-Prkdc SCID mouse assessed as effect on tumor growth administered twice daily for 16 to 24 days measured 4 hrs post-last dose; assay type: functional, organism-based
[18] = molecular target: T2, Cathepsin K (Homo sapiens); test: Inhibition of cathepsin K (unknown origin) at 100 nM relative to control
[19] = molecular target: T2, Cathepsin K (Homo sapiens); test: Inhibition of cathepsin K (unknown origin) at 10 uM relative to control
[20] = molecular target: T3, Cathepsin L2 (Homo sapiens); test: Inhibition of cathepsin V (unknown origin) at 1 uM relative to control
Trypsin (Homo sapiens) = Trypsin (Homo sapiens) (UniProt P07477+P07478+P35030); test: Inhibition of trypsin (unknown origin) at 100 nM relative to control; assay type: protein assay

Caspase-4 (Homo sapiens), sequence (P49662 81-270 limits assumed): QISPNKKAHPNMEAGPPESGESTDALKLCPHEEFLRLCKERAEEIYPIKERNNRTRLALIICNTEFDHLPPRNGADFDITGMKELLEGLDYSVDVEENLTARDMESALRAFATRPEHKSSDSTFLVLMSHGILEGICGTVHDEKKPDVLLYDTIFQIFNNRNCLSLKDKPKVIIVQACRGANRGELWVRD
Caspase-4 (Homo sapiens), sequence (P49662 290-377 limits assumed): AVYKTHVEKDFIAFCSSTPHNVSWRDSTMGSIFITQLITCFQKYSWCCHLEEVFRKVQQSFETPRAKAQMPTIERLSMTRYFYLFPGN
Caspase-7 (Homo sapiens), sequence (P55210 24-198 limits assumed): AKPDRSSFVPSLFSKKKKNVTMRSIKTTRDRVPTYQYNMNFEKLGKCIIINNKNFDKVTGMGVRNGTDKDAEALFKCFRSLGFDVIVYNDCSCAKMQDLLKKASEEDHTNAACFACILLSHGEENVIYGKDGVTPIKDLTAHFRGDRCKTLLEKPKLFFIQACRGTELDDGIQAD
Caspase-7 (Homo sapiens), sequence (P55210 207-303 limits assumed): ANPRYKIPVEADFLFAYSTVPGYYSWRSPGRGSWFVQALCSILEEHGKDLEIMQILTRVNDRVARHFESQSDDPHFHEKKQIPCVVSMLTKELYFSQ

CC(C)[C@H](NC(=O)c1ccc(Br)cc1)C(=O)N1CCC[C@H]1C(=O)N[C@@H](CCCNC(=N)N)C(=O)CF
inhibition (Caspase-4 (Homo sapiens)): Active
inhibition (Caspase-7 (Homo sapiens)): Active
t1/2 [1]: > 2 h
t1/2 [2]: 4.3 h
inhibition [3]: 105%
inhibition [4]: 97.1%
inhibition [5]: Active
inhibition [6]: Active
inhibition [7]: 99.1%
inhibition [8]: 89.4%
inhibition [9]: Active
inhibition [10]: 14.8%
inhibition (Legumain (Homo sapiens)): Active
Activity (OCI-Ly3): Active
inhibition (Caspase-9 (Homo sapiens)): Active
Drug uptake [11]: Active
inhibition [12]: 25.2%
IC50 [13]: 70 to 71 nM
inhibition [14]: 25.6%
inhibition (Caspase-6 (Homo sapiens)): Active
inhibition [15]: 44.9%
inhibition [16]: 6.1%
inhibition [17]: 23.6%
Activity (OCI-Ly1): Active
inhibition [18]: 63.2%
inhibition [19]: 98.7%
inhibition [20]: 56.9%
inhibition (Trypsin (Homo sapiens)): 92.9%
